Experimental data: the supplement of paper PMC6045584
± gives the standard deviation of the averaged measurements.

Key:
CELECOXIB = compound: Cc1ccc(-c2cc(C(F)(F)F)nn2-c2ccc(S(N)(=O)=O)cc2)cc1 [CELECOXIB]; assay: surviving fraction relative to DMSO-only wells; higher = less growth inhibition; settings: exposure time: 5 days
Procedure, shortened: (§1)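 Five days of continuous inhibitor exposure, at 0.5, 1, 5, 10, 50, 100, 500 and 1000 nM, followed a 24-hour period after log-phase tumour cell lines were seeded at 250–500 cells per well in 384-well plates. Surviving fraction was derived from CellTiter-Glo luminescence relative to the median of DMSO-only wells. Plates were read after 10 minutes at room temperature, and lines screened three times were kept only if replicate Pearson r >0.7 and median Z' >0.3.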

PACLITAXEL = compound: CC(=O)O[C@H]1C(=O)[C@@]2(C)[C@H]([C@H](OC(=O)c3ccccc3)[C@]3(O)C[C@H](OC(=O)[C@H](O)[C@@H](NC(=O)c4ccccc4)c4ccccc4)C(C)=C1C3(C)C)[C@]1(OC(C)=O)CO[C@@H]1C[C@@H]2O [PACLITAXEL]; assay: as above; settings: exposure time: 5 days
Procedure, shortened: as §1

Row | Test System | surviving fraction (CELECOXIB; 0.5 nM) | surviving fraction (CELECOXIB; 1 nM) | surviving fraction (CELECOXIB; 5 nM) | surviving fraction (CELECOXIB; 10 nM) | surviving fraction (CELECOXIB; 50 nM) | surviving fraction (CELECOXIB; 100 nM) | surviving fraction (CELECOXIB; 500 nM) | surviving fraction (CELECOXIB; 1000 nM) | surviving fraction (PACLITAXEL; 0.5 nM) | surviving fraction (PACLITAXEL; 1 nM) | surviving fraction (PACLITAXEL; 5 nM) | surviving fraction (PACLITAXEL; 10 nM) | surviving fraction (PACLITAXEL; 50 nM) | surviving fraction (PACLITAXEL; 100 nM) | surviving fraction (PACLITAXEL; 500 nM) | surviving fraction (PACLITAXEL; 1000 nM)
1 | SYO1 SYNOVIAL | 0.952 ± 0.052 | 0.998 ± 0.055 | 0.985 ± 0.065 | 0.9986 ± 0.0091 | 0.974 ± 0.022 | 0.955 ± 0.043 | 0.975 ± 0.07 | 1.04 ± 0.061 | 0.828 ± 0.041 | 0.592 ± 0.015 | 0.107 ± 0.0096 | 0.0752 ± 0.0059 | 0.056 ± 0.0057 | 0.0522 ± 0.0059 | 0.0456 ± 0.0087 | 0.048 ± 0.009
2 | MHM BONE | 1.01 ± 0.038 | 1.01 ± 0.027 | 1.04 ± 0.03 | 1.08 ± 0.057 | 1.05 ± 0.041 | 1.05 ± 0.025 | 1.009 ± 0.009 | 1.02 ± 0.028 | 0.9897 ± 0.0049 | 0.992 ± 0.053 | 0.535 ± 0.021 | 0.339 ± 0.022 | 0.243 ± 0.0095 | 0.216 ± 0.011 | 0.187 ± 0.0059 | 0.177 ± 0.01
3 | PCI30 HEADNECK | 1.02 ± 0.095 | 1 ± 0.057 | 1.07 ± 0.044 | 1.07 ± 0.046 | 1.03 ± 0.12 | 1.01 ± 0.013 | 0.975 ± 0.051 | 0.928 ± 0.038 | 0.721 ± 0.06 | 0.355 ± 0.044 | 0.199 ± 0.022 | 0.114 ± 0.03 | 0.0853 ± 0.011 | 0.0737 ± 0.016 | 0.0753 ± 0.016 | 0.071 ± 0.0061
4 | SG27 HEADNECK | 1.18 ± 0.086 | 1.14 ± 0.069 | 1.14 ± 0.09 | 1.13 ± 0.046 | 1.3 ± 0.084 | 1.17 ± 0.23 | 1.12 ± 0.15 | 1.21 ± 0.081 | 0.88 ± 0.066 | 0.899 ± 0.062 | 0.937 ± 0.032 | 0.935 ± 0.056 | 0.888 ± 0.1 | 0.911 ± 0.097 | 1.01 ± 0.04 | 0.849 ± 0.068
5 | BT20 BREAST | 1.14 ± 0.085 | 1.1 ± 0.035 | 1.08 ± 0.059 | 1.19 ± 0.077 | 1.11 ± 0.072 | 1.22 ± 0.061 | 1.23 ± 0.059 | 1.07 ± 0.047 | 0.956 ± 0.11 | 0.718 ± 0.026 | 0.0893 ± 0.0055 | 0.0667 ± 0.0057 | 0.0593 ± 0.0063 | 0.058 ± 0.01 | 0.0513 ± 0.0049 | 0.0587 ± 0.011
6 | 143B BONE | 0.999 ± 0.011 | 1.04 ± 0.03 | 1.07 ± 0.057 | 1.05 ± 0.0021 | 1.08 ± 0.052 | 1.14 ± 0.072 | 1.08 ± 0.05 | 1.08 ± 0.033 | 0.9755 ± 0.0078 | 0.99 ± 0.031 | 0.424 ± 0.016 | 0.265 ± 0.018 | 0.134 ± 0.0099 | 0.089 ± 0.013 | 0.0575 ± 0.0092 | 0.0655 ± 0.0064
7 | HCC202 BREAST | 1.15 ± 0.041 | 1.14 ± 0.04 | 1.2 ± 0.33 | 1.04 ± 0.09 | 1.06 ± 0.27 | 1.13 ± 0.18 | 1.36 ± 0.39 | 1.12 ± 0.16 | 1.15 ± 0.51 | 0.655 ± 0.15 | 0.377 ± 0.091 | 0.364 ± 0.12 | 0.362 ± 0.027 | 0.362 ± 0.047 | 0.352 ± 0.032 | 0.327 ± 0.098
8 | MDAMB436 BREAST | 0.986 ± 0.11 | 1.09 ± 0.23 | 1.03 ± 0.085 | 1.04 ± 0.11 | 1.03 ± 0.11 | 1.03 ± 0.14 | 0.992 ± 0.076 | 0.992 ± 0.11 | 0.794 ± 0.033 | 0.684 ± 0.015 | 0.314 ± 0.022 | 0.21 ± 0.0036 | 0.192 ± 0.03 | 0.173 ± 0.016 | 0.171 ± 0.014 | 0.198 ± 0.018
9 | HMLE3 BREAST | 1.08 ± 0.07 | 1.06 ± 0.032 | 1.08 ± 0.1 | 1.06 ± 0.025 | 1.04 ± 0.15 | 1.09 ± 0.076 | 1.1 ± 0.061 | 1.03 ± 0.17 | 0.89 ± 0.065 | 0.816 ± 0.1 | 0.247 ± 0.019 | 0.0813 ± 0.0093 | 0.05 ± 0.007 | 0.0377 ± 0.0042 | 0.034 ± 0.0027 | 0.0287 ± 0.0011
10 | 22RV1 PROSTATE | 1.02 ± 0.059 | 1.06 ± 0.082 | 0.996 ± 0.088 | 1.03 ± 0.025 | 0.956 ± 0.17 | 1.01 ± 0.16 | 1.02 ± 0.12 | 1.06 ± 0.035 | 1.02 ± 0.057 | 1.04 ± 0.066 | 0.121 ± 0.018 | 0.0847 ± 0.0021 | 0.0603 ± 0.0061 | 0.053 ± 0.0036 | 0.0467 ± 0.0057 | 0.0553 ± 0.0046
11 | SUM149 BREAST | 1.1 ± 0.056 | 1.09 ± 0.021 | 1.2 ± 0.035 | 1.16 ± 0.057 | 1.08 ± 0.021 | 1.09 ± 0.13 | 1.06 ± 0.04 | 1.12 ± 0.13 | 0.809 ± 0.053 | 0.452 ± 0.11 | 0.0573 ± 0.004 | 0.0463 ± 0.0085 | 0.0357 ± 0.00058 | 0.0373 ± 0.0038 | 0.0337 ± 0.006 | 0.0307 ± 0.0023
12 | G292 BONE | 1.03 ± 0.028 | 1.02 ± 0.05 | 1.03 ± 0.039 | 1 ± 0.057 | 1.04 ± 0.02 | 1.02 ± 0.047 | 0.996 ± 0.045 | 0.964 ± 0.076 | 0.727 ± 0.028 | 0.472 ± 0.021 | 0.196 ± 0.0038 | 0.161 ± 0.0064 | 0.148 ± 0.0067 | 0.147 ± 0.0013 | 0.1228 ± 0.00076 | 0.128 ± 0.0067
13 | LNCAP PROSTATE | 1.02 ± 0.042 | 0.956 ± 0.067 | 0.986 ± 0.057 | 1.01 ± 0.081 | 0.919 ± 0.012 | 0.998 ± 0.083 | 0.885 ± 0.057 | 0.94 ± 0.065 | 0.531 ± 0.04 | 0.358 ± 0.086 | 0.054 ± 0.015 | 0.0533 ± 0.004 | 0.0417 ± 0.0015 | 0.0347 ± 0.0038 | 0.0387 ± 0.0021 | 0.0477 ± 0.0055
